Where two headings read alike, the source gives them in different places.

Results on two compounds are retold here after publication PMC7415757, “Monocrotaline-induced liver toxicity in rat predicted by a combined in vitro physiologically based kinetic modeling approach” (Archives of Toxicology, 2020).

For data set [1] the following is noted: ref Chen et al. [2018]; cited from earlier work.
In data set [2] the test system is human liver cell line HepaRG. The following applies: in vitro γH2AX induction potency, ref Louisse et al. ([2019]); cited from earlier work.
For data set [3] the following is noted: ref Chen et al. [2018], cited from earlier work.
Data set [4] deals with primary rat hepatocytes. Conditions: same model system; ref Chen et al. [2018]; read-out: EC50 cell viability; cited from earlier work.
The conditions of data set [5]: ref Chen et al. [2018], cited from earlier work. This is another data set of the same source.
For data set [6] the following is noted: ref Chen et al. [2018]; cited from earlier work. The source holds these as a separate data set.
Data set [7] relates to primary rat hepatocytes. Kind of data set: WST-1 cytotoxicity assay with primary rat hepatocytes. In kind it is cell-based, rat (Sprague–Dawley). The following applies: primary rat hepatocytes. As for the experimental part: The monocrotaline-induced liver toxicity was tested in vitro using the WST-1 assay which measures the formazan formation by the metabolically active cells from WST-1. Pooled cryopreserved plateable male rat (Sprague–Dawley) hepatocytes (RTCP10™) were thawed and seeded in accordance with the manufacturer’s protocol. Briefly, cells were seeded in 96-well plates (Greiner bio-one, Alphen aan den Rijn, The Netherlands) at a concentration of 5 × 10^5 cells/ml to give 1.25 × 10^4 cells/well and incubated at 37 °C, 5% CO2 in a humidified atmosphere for 6 h to allow cell adherence. […] The solvent DMSO (0.5% (v/v) final concentration in exposure medium) was used as a negative control and triton X (final concentration 1% (v/v) in exposure medium) served as a positive control in all cytotoxicity assays. After exposure for 24 h, 5 μl (1:20 dilution) WST-1 reagent was added to each well and plates were incubated for an additional 1 h. Then, the plate was shaken at 1000 rpm for 1 min, and absorbance was measured at 440 nm (background absorbance at 620 nm was subtracted) using a SpectraMax M2 (Molecular Devices, Sunnyvale, USA).
Data are presented as mean values ± SE from three independent experiments with three different batches of rat hepatocytes. The cell viability was expressed as percentage of the solvent control, with the solvent control set at 100%. The obtained concentration–response curves for hepatotoxicity were fitted with a symmetrical sigmoidal model (Hill slope) which was further used to derive IC50 values using log [inhibitor] vs. normalized response using GraphPad Prism software (version 5.00 for Windows, GraphPad software, San Diego, USA).
For orientation: Tetrazolium dyes change colour on reduction, which living cells bring about.

Data set [8] can be described thus: Substrate depletion in incubations with pooled rat liver microsomes. In kind it is in vitro ADME, rat (Sprague–Dawley). Conditions: liver microsomes versus intestinal microsomes. The protocol: After 5 min of pre-incubation in a shaking water bath at 37 °C, the reactions were started by the addition of 1 mM NADPH. The reactions were carried out for 1 h and 2 h for liver and intestinal microsomes, respectively. For each incubation, a corresponding control incubated in the absence of NADPH was included by adding buffer instead of NADPH. To stop the metabolic conversion, 100 µl of ice-cold methanol was added and the sample was put on ice, then centrifuged at 5000 × g for 20 min at 4 °C using a microcentrifuge (CT15RE, VWR, Leuven, Belgium). Supernatants were diluted 200 times in 90% (v/v) acetonitrile and transferred to LC–MS vials. LC–MS analysis was performed using a Shimadzu Nexera XR LC-20AD SR UPLC system in tandem with a Shimadzu LCMS-8040 mass spectrometer (Shimadzu, Kyoto, Japan). From each incubation, 1 µl of supernatant was loaded onto a Luna Omega polar C18 100A LC column (1.6 µm 100 × 2.1 mm, Phenomenex) fitted with a FP polar precolumn (Phenomenex), using a flow rate of 0.3 ml/min. The temperature was set at 40 °C and 5 °C for column and sample, respectively. The mobile phase consisted of ultrapure water (solvent A) and acetonitrile (solvent B) both containing 0.1% (v/v) formic acid. The gradient began with 100% solvent A (0% B) for 1 min to wash away unwanted salts, followed by a linear gradient from 0 to 5% B till 8 min and a further increase to 100% B in 2 min, keeping the elution at 100% B for 0.5 min, then the column was set back to the starting conditions and equlibrated for 3.4 min before the next injection. […] For all incubations, three independent replicates were performed.
The ratio of Vmax and Km was calculated as the in vitro catalytic efficiency (kcat) expressed in […]. […] The rat liver weight of 8.5 g and small intestine weight of 3.5 g (see Table 1) (Brown et al. [1997]) were used to scaled the in vivo kcat values to values expressed in ml/min/tissue.
In general terms: Liver microsomes are vesicles of endoplasmic reticulum, rich in cytochrome P450 enzymes.

For data set [9] the following is noted: ref Merz and Schrenk ([2016]); cited from earlier work.

With `C=C1C/C(=C/C)C(=O)O[C@@H]2CCN3CC=C(COC(=O)[C@@]1(O)CO)[C@H]23` [Riddelliine], in data set [1], the “Tissue/blood partition coefficient, fat (PF)” value is on record as 0.44; the “Tissue/blood partition coefficient, liver (PL)” value was 0.77; the “Tissue/blood partition coefficient, richly perfused tissue (PR)” value was 0.77; the “Tissue/blood partition coefficient, slowly perfused tissue (PS)” value is listed as 0.43. In addition, the “Tissue/blood partition coefficient, small intestine (PI)” value in data set [1] was 0.77. Also, in [2], the “pRPF (provisional relative potency factor)” value is 1 and the potency group entry is on record as “group 1”. Also, in data set [3] (intestine), the Km is 221 µM, the “Scaled Vmax” value was 2.06 nmol/min/g tissue, the Scaled kcat is reported as 0.009 ml/min/g tissue and the Vmax is given as 0.1 nmol/min/mg microsomal protein. In data set [3] (small intestine weight 3.5 g), the Scaled kcat was 0.03 ml/min/ tissue. Further, the EC50 in data set [4] is 6.3 µM. Further, the Scaled kcat in data set [5] (liver weight 8.5 g) is listed as 8.2 ml/min/ tissue. In addition, in data set [5] (liver), the Km is 75.7 µM, the “Scaled Vmax” value is 73.5 nmol/min/g tissue, the Scaled kcat is 0.97 ml/min/g tissue and the Vmax is on record as 2.1 nmol/min/mg microsomal protein. For the same compound, the “Ka derived from Eq. 5” value in data set [6] was 1.17 h⁻¹. Moreover, the “times more toxic than monocrotaline in vitro” value in data set [7] is on record as 20.7. For the same compound, the “in vivo scaled kcat (ml/min tissue) liver relative to intestine” value in [8] stood at 253 times. Moreover, the “pRPF (provisional relative potency factor)” value in data set [9] was about 1.0.

For the compound `C/C=C(/C)C(=O)O[C@H]1CCN2CC=C(COC(=O)[C@@](O)([C@H](C)OC)C(C)(C)O)[C@H]12` [Lasiocarpine], in data set [1], the “Tissue/blood partition coefficient, fat (PF)” value is listed as 2.44; the “Tissue/blood partition coefficient, liver (PL)” value is on record as 0.88; the “Tissue/blood partition coefficient, richly perfused tissue (PR)” value was 0.88; the “Tissue/blood partition coefficient, slowly perfused tissue (PS)” value is listed as 0.48. In data set [1], the “Tissue/blood partition coefficient, small intestine (PI)” value is on record as 0.88. Besides, the potency group entry in data set [2] was “group 1”. For the same compound, in data set [3] (intestine), the Km is 23.4 µM. Also, the 50% effective concentration (EC50) in data set [4] is 10.9 µM. For the same compound, in [5] (liver), the Michaelis-Menten constant (Km) was 19.5 µM. For the same compound, the “times more toxic than monocrotaline in vitro” value in [7] was found to be 35.7.

For orientation: Km means the substrate concentration at which the rate is half of its maximum. The term EC50 denotes the concentration giving half of the maximal effect.
